Reference: patent US11643421B2, “Process for the preparation of tricyclic PI3K inhibitor compounds and methods for using the same for the treatment of cancer” (priority 2015, dated 2023)
Read-outs that look alike come from different tables or passages of the source.

Key:
PAK1 = PAK1 (Homo sapiens, UniProt Q13153); assay: biochemical; conditions: read-out: % inhib
AKT1 = AKT1 (Homo sapiens, UniProt P31749); assay: biochemical; conditions: read-out: % inhib
high-grade gliomas = assay: Phase I study, best overall response (RANO); format: in vivo, human; conditions: evaluable patients
Description: Tumor response was determined by either an assessment of FDG-PET or by Response Assessment in Neuro-Oncology (RANO).
Tumor response under the RANO guidelines was done generally in accordance with the Wen method (Wen P Y, Macdonald D R, Reardon D A, et al. “Updated response assessment criteria for high-grade gliomas: Response Assessment in Neuro-Oncology Working Group”, J Clin Oncol 2010; 28:1963-72) where the disease is categorized as “complete response”, “partial response”, “stable disease” and “progression”. Among other factors, a complete response required all of the following: complete disappearance of all enhancing measurable and non-measurable disease sustained for at least 4 weeks; no new lesions; and stable or improved non-enhancing (T2/FLAIR) lesions. A partial response required, among other factors, ≥50% decrease, compared with baseline, in the sum of the products of the perpendicular diameters of all measurable enhancing lesions (such as measured by MRI) sustained for at least 4 weeks; no progression of non-measurable disease; and no new lesions.

p70S6K = p70S6K (Homo sapiens, UniProt P23443); assay: biochemical; conditions: read-out: % inhib
human BCRP = biological target: T1, human BCRP (Homo sapiens, UniProt Q9UNQ0); assay: Transport assay in BCRP-MDCKII cell monolayers; format: in vitro ADME; conditions: 2-hour incubation
T1 construct: host or cells: BCRP-MDCKII (canine kidney)
Description: MDR1-MDCKI cells were licensed from the NCI (National Cancer Institute, Bethesda, Md.) and Bcrp1-MDCKII, BCRP-MDCKII and Mdr1a-LLC-PK1 cells were obtained from the Netherlands Cancer Institute (Amsterdam. The Netherlands). […] The compound was dissolved in transport buffer consisting of Hank's balanced salt solution (HBSS) with 10 mM HEPES (Invitrogen Corporation, Grand Island, N.Y.). Lucifer Yellow (Sigma-Aldrich, St. Louis, Mo.) was used as the paracellular and monolayer integrity marker. […] The efflux ratio (ER) was calculated (Papp, B-A/Papp, A-B).

[1] = Phase I dose-escalation study, plasma pharmacokinetics; format: in vivo, human; conditions: for concentration at 15 day: read-out: Cmin (μM), Mean; for AUC(0-t): read-out: AUC0-24 (μM*hr), Mean; for AUC(0-inf): read-out: AUCinf (μM*hr), Mean
Description: Plasma samples for pharmacokinetic (“PK”) analysis were collected on day 1 and day 8 or day 15 of cycle 1. Fluorodeoxyglucose positron emission tomography (“FDG-PET”) was performed at baseline and on-treatment.
Dosing times may have been adjusted to accommodate for time shifts from the home administration schedule (e.g., for clinic visits with PK sampling or traveling), but times were to be adjusted by no more than 4 hours at a time.
For administration under fasted conditions, patients fasted overnight for at least 8 hours before dosing and 2 hours after dosing.
For Cohorts 1-6 (2-30 mg), the single dose on Cycle 1, Day 1 was followed by a 7 day washout-period, after which continuous once daily dosing, for 28 consecutive days, was started on Day 8. Blood samples for Cohorts 1-6 were collected on Day 15 for PK analysis.
All plasma concentration-time data collected in Cycle 1 were analyzed using WinNonlin® (Version 6.4, Pharsight Corp, Mountain View, Calif.) to estimate PK parameters, which included but were not limited to AUC0-last (where AUC refers to the area under the concentration-time curve) and/or AUCinf, Cmax, Cmin, tmax, half-life, CL/F, and accumulation ratio. Estimates for each PK parameter and summary statistics (mean, standard deviation, coefficient of variation, median, minimum, and maximum) were tabulated by dose level and schedule. Nominal time data were used in the analysis, and the linear up/log down trapezoidal method was used for calculating AUC.

GCK = GCK (Homo sapiens, UniProt Q12851); assay: biochemical; conditions: read-out: % inhib
EphA2 = EphA2 (Homo sapiens, UniProt P29317); assay: biochemical; conditions: read-out: % inhib
[2] = human, plasma, oral, 2 mg once daily, multiple doses, Cycle 1 Day 15
[3] = human, plasma, oral, 4 mg once daily, multiple doses, Cycle 1 Day 15
[4] = human, plasma, oral, 8 mg once daily, multiple doses, Cycle 1 Day 15
[5] = human, plasma, oral, 15 mg once daily, multiple doses, Cycle 1 Day 15
[6] = human, plasma, oral, 20 mg once daily, multiple doses, Cycle 1 Day 15
[7] = human, plasma, oral, 45 mg once daily, multiple doses, Cycle 1 Day 8
[8] = human, plasma, oral, 65 mg once daily, multiple doses, Cycle 1 Day 8
[9] = human, plasma, 2 mg single oral dose, Cycle 1 Day 1
[10] = human, plasma, 4 mg single oral dose, Cycle 1 Day 1
[11] = human, plasma, 8 mg single oral dose, Cycle 1 Day 1
[12] = human, plasma, 15 mg single oral dose, Cycle 1 Day 1
[13] = human, plasma, 20 mg single oral dose, Cycle 1 Day 1
[14] = human, plasma, 30 mg single oral dose, Cycle 1 Day 1
[15] = human, plasma, 45 mg single oral dose, Cycle 1 Day 1
[16] = human, plasma, 65 mg single oral dose, Cycle 1 Day 1

T1 sequence (Q9UNQ0 whole entry): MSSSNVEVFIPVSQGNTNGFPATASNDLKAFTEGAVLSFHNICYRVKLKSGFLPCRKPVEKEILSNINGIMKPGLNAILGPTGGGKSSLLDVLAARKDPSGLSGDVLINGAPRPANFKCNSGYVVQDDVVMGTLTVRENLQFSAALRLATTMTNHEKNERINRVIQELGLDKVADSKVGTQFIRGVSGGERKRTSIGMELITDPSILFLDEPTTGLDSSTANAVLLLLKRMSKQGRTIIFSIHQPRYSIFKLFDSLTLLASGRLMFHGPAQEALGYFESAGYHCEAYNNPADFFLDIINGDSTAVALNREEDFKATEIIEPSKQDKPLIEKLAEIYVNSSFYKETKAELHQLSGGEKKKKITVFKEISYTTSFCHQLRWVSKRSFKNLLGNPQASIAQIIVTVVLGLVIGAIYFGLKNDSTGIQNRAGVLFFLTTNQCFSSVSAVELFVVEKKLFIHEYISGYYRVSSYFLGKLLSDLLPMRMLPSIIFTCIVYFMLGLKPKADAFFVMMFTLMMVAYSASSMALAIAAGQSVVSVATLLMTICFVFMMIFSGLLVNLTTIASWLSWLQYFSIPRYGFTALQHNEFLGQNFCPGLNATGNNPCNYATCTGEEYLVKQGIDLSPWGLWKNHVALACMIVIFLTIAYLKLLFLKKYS
p70S6K, sequence (P23443 whole entry): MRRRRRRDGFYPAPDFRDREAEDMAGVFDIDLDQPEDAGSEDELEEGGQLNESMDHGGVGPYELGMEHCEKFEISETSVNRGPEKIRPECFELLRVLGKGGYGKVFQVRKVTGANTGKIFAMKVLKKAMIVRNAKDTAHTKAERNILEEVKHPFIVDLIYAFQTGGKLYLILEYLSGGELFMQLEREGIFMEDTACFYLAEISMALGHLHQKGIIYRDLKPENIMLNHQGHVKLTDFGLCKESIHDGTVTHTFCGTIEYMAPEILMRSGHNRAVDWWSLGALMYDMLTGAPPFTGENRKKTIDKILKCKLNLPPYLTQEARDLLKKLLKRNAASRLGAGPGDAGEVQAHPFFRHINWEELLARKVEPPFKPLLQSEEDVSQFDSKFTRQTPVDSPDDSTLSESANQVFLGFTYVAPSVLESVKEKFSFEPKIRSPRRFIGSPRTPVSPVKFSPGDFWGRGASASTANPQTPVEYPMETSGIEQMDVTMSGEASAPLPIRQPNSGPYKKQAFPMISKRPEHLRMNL
PAK1, sequence (Q13153 whole entry): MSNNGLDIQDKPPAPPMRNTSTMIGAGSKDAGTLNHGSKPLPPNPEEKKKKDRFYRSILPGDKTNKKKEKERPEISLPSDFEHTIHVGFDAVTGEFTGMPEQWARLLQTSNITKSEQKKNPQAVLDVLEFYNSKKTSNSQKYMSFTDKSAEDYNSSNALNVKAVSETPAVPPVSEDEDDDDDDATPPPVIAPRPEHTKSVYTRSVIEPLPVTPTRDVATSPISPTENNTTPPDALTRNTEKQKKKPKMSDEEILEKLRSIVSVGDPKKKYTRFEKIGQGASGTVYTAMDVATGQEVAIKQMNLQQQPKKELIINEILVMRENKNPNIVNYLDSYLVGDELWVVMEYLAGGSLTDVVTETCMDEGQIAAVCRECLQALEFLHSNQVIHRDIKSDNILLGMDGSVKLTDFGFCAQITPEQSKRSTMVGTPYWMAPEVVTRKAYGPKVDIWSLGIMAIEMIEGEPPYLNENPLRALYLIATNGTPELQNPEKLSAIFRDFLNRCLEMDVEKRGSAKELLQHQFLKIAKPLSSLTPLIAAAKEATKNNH
AKT1, sequence (P31749 whole entry, species assumed): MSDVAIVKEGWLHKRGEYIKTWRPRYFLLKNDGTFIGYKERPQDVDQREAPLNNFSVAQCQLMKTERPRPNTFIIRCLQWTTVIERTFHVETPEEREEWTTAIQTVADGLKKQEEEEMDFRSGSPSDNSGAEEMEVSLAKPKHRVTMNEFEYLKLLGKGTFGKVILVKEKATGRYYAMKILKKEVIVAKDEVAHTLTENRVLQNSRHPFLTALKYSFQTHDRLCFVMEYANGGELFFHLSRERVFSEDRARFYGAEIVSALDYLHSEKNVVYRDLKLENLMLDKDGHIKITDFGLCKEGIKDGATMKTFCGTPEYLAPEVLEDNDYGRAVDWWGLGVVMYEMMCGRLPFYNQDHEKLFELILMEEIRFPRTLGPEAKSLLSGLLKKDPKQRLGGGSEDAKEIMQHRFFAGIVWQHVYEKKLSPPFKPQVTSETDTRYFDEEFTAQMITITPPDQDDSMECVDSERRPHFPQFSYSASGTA
GCK, sequence (Q12851 whole entry): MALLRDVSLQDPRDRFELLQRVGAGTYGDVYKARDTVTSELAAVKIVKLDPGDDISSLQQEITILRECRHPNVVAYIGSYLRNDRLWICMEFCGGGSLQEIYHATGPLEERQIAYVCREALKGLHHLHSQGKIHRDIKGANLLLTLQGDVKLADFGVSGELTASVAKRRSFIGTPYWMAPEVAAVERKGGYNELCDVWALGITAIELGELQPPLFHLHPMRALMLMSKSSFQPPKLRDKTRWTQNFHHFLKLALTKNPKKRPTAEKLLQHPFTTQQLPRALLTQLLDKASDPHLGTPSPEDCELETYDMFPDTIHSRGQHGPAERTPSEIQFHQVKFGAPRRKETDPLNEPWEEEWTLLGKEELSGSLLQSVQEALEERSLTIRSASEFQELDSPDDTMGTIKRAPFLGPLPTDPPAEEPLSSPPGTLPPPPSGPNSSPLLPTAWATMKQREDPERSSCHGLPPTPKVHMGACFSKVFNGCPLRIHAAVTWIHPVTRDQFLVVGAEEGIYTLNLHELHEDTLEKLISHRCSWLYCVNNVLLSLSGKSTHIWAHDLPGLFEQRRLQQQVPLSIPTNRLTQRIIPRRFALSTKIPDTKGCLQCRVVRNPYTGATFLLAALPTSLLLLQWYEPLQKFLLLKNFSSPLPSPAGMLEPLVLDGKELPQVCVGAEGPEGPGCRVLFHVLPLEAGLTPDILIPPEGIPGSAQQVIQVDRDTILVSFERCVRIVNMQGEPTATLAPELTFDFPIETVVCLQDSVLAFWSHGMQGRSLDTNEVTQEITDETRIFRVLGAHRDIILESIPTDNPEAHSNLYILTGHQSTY
EphA2, sequence (P29317 24-976, species assumed): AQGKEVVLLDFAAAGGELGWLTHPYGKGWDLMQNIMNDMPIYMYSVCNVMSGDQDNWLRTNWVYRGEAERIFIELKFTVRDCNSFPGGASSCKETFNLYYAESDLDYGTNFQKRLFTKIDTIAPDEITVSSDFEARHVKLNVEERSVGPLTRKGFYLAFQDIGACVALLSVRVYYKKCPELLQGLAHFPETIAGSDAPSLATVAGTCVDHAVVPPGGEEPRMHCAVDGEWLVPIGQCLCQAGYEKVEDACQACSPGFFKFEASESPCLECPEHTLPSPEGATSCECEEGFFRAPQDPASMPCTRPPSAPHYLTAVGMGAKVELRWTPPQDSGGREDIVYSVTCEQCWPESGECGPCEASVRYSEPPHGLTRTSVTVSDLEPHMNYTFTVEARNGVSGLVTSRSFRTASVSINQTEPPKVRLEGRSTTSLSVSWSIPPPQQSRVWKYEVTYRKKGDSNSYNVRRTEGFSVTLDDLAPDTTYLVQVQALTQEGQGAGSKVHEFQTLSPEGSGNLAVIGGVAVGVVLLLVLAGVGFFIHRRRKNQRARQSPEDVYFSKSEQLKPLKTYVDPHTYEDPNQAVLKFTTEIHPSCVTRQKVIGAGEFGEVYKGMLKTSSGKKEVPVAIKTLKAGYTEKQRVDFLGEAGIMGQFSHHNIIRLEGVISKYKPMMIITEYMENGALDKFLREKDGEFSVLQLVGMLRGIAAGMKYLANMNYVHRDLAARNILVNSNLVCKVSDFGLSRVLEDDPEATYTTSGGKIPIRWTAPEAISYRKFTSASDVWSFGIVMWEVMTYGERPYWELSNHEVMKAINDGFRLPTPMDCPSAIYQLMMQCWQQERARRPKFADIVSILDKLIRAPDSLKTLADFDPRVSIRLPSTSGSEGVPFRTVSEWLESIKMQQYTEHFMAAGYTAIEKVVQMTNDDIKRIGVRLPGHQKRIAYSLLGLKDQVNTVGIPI

With CC1(C)OCCn2c1nc1c(N3CCOCC3)nc(-c3cnc(N)nc3)nc12 [GDC-0084, 5-(6,6-dimethyl-4-morpholino-8,9-dihydro-6H-[1,4]oxazino[3,4-e]purin-2-yl)pyrimidin-2-amine] the inhibition at 1 µM (PAK1) was 7%, the inhibition at 1 µM (AKT1) was 0.7% and the “best overall response of progressive disease, patients” value (high-grade gliomas) was 26 patients. The “best overall response of progressive disease, percent” value (high-grade gliomas) was 55.3%, the “best overall response stable disease, patients” value (high-grade gliomas) was 19 patients and the “best overall response stable disease, percent” value (high-grade gliomas) was 40.4%. It also gave an inhibition at 1 µM (p70S6K) of 6%, a Papp A→B at 2 h, 5 μM (human BCRP) of 23.2 ± 5.4 ×10⁻⁶ cm/s and a Papp B→A at 2 h, 5 μM (human BCRP) of 16 ± 1.1 ×10⁻⁶ cm/s. The concentration at 15 day ([1]; 4 mg once daily, multiple doses, Cycle 1 Day 15) was 0.0207 µM, the “CL/F (L/hr), Mean” value ([1]; 4 mg single oral dose, Cycle 1 Day 1) was 4.87 L/h and the concentration at 15 day ([1]; 8 mg once daily, multiple doses, Cycle 1 Day 15) was 0.0301 µM. The “CL/F (L/hr), Mean” value ([1]; 8 mg single oral dose, Cycle 1 Day 1) was 12.4 L/h, the concentration at 15 day ([1]; 15 mg once daily, multiple doses, Cycle 1 Day 15) was 0.0581 µM and the concentration at 15 day ([1]; 20 mg once daily, multiple doses, Cycle 1 Day 15) was 0.0635 µM. The “CL/F (L/hr), Mean” value ([1]; 20 mg single oral dose, Cycle 1 Day 1) was 7.92 L/h, the concentration at 15 day ([1]; 30 mg once daily, multiple doses, Cycle 1 Day 15) was 0.155 µM and the “CL/F (L/hr), Mean” value ([1]; 30 mg single oral dose, Cycle 1 Day 1) was 8.22 L/h. The concentration at 15 day ([1]; 45 mg once daily, multiple doses, Cycle 1 Day 8) was 0.206 µM, the concentration at 15 day ([1]; 65 mg once daily, multiple doses, Cycle 1 Day 8) was 0.271 µM and the half-life ([1]; human, plasma, oral, across Cohorts 1-6 (2 to 30 mg), single dose, read-out: apparent terminal phase t1/2 (converted)) was ~18.7 h. For the same compound, the Cmax [1, 2] was 0.0331 µM, the AUC(0-t) [1, 2] was 0.346 µM·h and the concentration at 15 day [1, 2] was 0.00877 µM. The Tmax ([1]; human, plasma, oral, 2 mg once daily, multiple doses, Cycle 1 Day 15, read-out: Tmax (hr), Median) was 2 h, the Cmax [1, 3] was 0.593 µM and the AUC(0-t) [1, 3] was 0.833 µM·h. The Tmax ([1]; human, plasma, oral, 4 mg once daily, multiple doses, Cycle 1 Day 15, read-out: Tmax (hr), Median) was 2 h, the Cmax [1, 4] was 0.0883 µM and the AUC(0-t) [1, 4] was 1.16 µM·h. It also gave a Tmax ([1]; human, plasma, oral, 8 mg once daily, multiple doses, Cycle 1 Day 15, read-out: Tmax (hr), Median) of 2.5 h, a Cmax [1, 5] of 0.156 µM and an AUC(0-t) [1, 5] of 2.34 µM·h. The Tmax ([1]; human, plasma, oral, 15 mg once daily, multiple doses, Cycle 1 Day 15, read-out: Tmax (hr), Median) was 3 h, the Cmax [1, 6] was 0.23 µM and the AUC(0-t) [1, 6] was 2.87 µM·h. It also gave a Tmax ([1]; human, plasma, oral, 20 mg once daily, multiple doses, Cycle 1 Day 15, read-out: Tmax (hr), Median) of 2 h, a Cmax ([1]; human, plasma, oral, 30 mg once daily, multiple doses, Cycle 1 Day 15) of 0.332 µM and an AUC(0-t) ([1]; human, plasma, oral, 30 mg once daily, multiple doses, Cycle 1 Day 15, n = 5) of 5.67 µM·h. For the same compound, the Tmax ([1]; human, plasma, oral, 30 mg once daily, multiple doses, Cycle 1 Day 15, read-out: Tmax (hr), Median) was 2 h, the Cmax [1, 7] was 0.544 µM and the AUC(0-t) [1, 7] was 8.06 µM·h. The Tmax ([1]; human, plasma, oral, 45 mg once daily, multiple doses, Cycle 1 Day 8, read-out: Tmax (hr), Median) was 3.5 h, the Cmax [1, 8] was 0.58 µM and the AUC(0-t) [1, 8] was 9.01 µM·h. For the same compound, the Tmax ([1]; human, plasma, oral, 65 mg once daily, multiple doses, Cycle 1 Day 8, read-out: Tmax (hr), Median) was 3 h, the half-life ([1]; human, plasma, po, 2 mg, 2 mg single oral dose, Cycle 1 Day 1, read-out: T1/2 (hr), Mean (converted)) was 16.9 h and the half-life ([1]; human, plasma, po, 4 mg, 4 mg single oral dose, Cycle 1 Day 1, read-out: T1/2 (hr), Mean (converted)) was 21.8 h. It also gave a half-life ([1]; human, plasma, po, 8 mg, 8 mg single oral dose, Cycle 1 Day 1, read-out: T1/2 (hr), Mean (converted)) of 18.2 h, a half-life ([1]; human, plasma, po, 15 mg, 15 mg single oral dose, Cycle 1 Day 1, read-out: T1/2 (hr), Mean (converted)) of 18.1 h and a half-life ([1]; human, plasma, po, 20 mg, 20 mg single oral dose, Cycle 1 Day 1, read-out: T1/2 (hr), Mean (converted)) of 14.8 h. For the same compound, the half-life ([1]; human, plasma, po, 30 mg, 30 mg single oral dose, Cycle 1 Day 1, read-out: T1/2 (hr), Mean (converted)) was 22 h, the AUC(0-t) [1, 9] was 0.21 µM·h and the AUC(0-inf) [1, 9] was 0.365 µM·h. For the same compound, the Tmax ([1]; human, plasma, 2 mg single oral dose, Cycle 1 Day 1, read-out: Tmax (hr), Median) was 2 h, the Cmax [1, 10] was 0.0359 µM and the AUC(0-t) [1, 10] was 0.435 µM·h. For the same compound, the AUC(0-inf) [1, 10] was 0.833 µM·h, the Tmax ([1]; human, plasma, 4 mg single oral dose, Cycle 1 Day 1, read-out: Tmax (hr), Median) was 3 h and the Cmax [1, 11] was 0.0452 µM. It also gave an AUC(0-t) [1, 11] of 0.509 µM·h, an AUC(0-inf) [1, 11] of 0.974 µM·h and a Tmax ([1]; human, plasma, 8 mg single oral dose, Cycle 1 Day 1, read-out: Tmax (hr), Median) of 3 h. It also gave a Cmax [1, 12] of 0.0912 µM, an AUC(0-t) [1, 12] of 1.09 µM·h and an AUC(0-inf) [1, 12] of 1.97 µM·h. It also gave a Tmax ([1]; human, plasma, 15 mg single oral dose, Cycle 1 Day 1, read-out: Tmax (hr), Median) of 2 h, a Cmax [1, 13] of 0.159 µM and an AUC(0-t) [1, 13] of 1.9 µM·h. The AUC(0-inf) [1, 13] was 2.75 µM·h, the Tmax ([1]; human, plasma, 20 mg single oral dose, Cycle 1 Day 1, read-out: Tmax (hr), Median) was 2 h and the Cmax [1, 14] was 0.174 µM. For the same compound, the AUC(0-t) [1, 14] was 2.42 µM·h, the AUC(0-inf) [1, 14] was 5.33 µM·h and the Tmax ([1]; human, plasma, 30 mg single oral dose, Cycle 1 Day 1, read-out: Tmax (hr), Median) was 2 h. For the same compound, the Cmax [1, 15] was 0.234 µM, the AUC(0-t) [1, 15] was 3.12 µM·h and the Tmax ([1]; human, plasma, 45 mg single oral dose, Cycle 1 Day 1, read-out: Tmax (hr), Median) was 3 h. For the same compound, the Cmax [1, 16] was 0.255 µM, the AUC(0-t) [1, 16] was 4.06 µM·h and the Tmax ([1]; human, plasma, 65 mg single oral dose, Cycle 1 Day 1, read-out: Tmax (hr), Median) was 2.5 h. The Tmax ([1]; human, plasma, single oral dose, all cohorts, read-out: median Tmax) was ~2 h, the “dose proportionality of Cmax and AUC0-24” value ([1]; single and multiple doses, 2 mg to 65 mg once daily) was “approximately linear and dose proportional increase in Cmax and AUC0-24” and the inhibition at 1 µM (GCK) was 0.9%. It also gave an inhibition at 1 µM (EphA2) of -0.7%.
